# Results as given in patent US20240058283A1, “THE MODE OF ACTION OF N-MeDCPA ON TRPC CHANNELS” (West Virginia University Board of Governors on Behalf of …, priority 2022, published 2024).
# Legend:
# TRPC3 = target: T1, TRPC3 (Homo sapiens, UniProt Q13507); test: OAG-induced Ca2+ entry in Fura2-loaded HEK293 cells expressing TRPC3; format: cell-based; details: ELP-004 0 to 1 mM for 10 minutes before OAG, FIG. 1D, read-out: IC50, inhibition of OAG-induced Ca2+ entry
# T1 construct: expressed in transfected cells
# T1 sequence (Q13507 1-921): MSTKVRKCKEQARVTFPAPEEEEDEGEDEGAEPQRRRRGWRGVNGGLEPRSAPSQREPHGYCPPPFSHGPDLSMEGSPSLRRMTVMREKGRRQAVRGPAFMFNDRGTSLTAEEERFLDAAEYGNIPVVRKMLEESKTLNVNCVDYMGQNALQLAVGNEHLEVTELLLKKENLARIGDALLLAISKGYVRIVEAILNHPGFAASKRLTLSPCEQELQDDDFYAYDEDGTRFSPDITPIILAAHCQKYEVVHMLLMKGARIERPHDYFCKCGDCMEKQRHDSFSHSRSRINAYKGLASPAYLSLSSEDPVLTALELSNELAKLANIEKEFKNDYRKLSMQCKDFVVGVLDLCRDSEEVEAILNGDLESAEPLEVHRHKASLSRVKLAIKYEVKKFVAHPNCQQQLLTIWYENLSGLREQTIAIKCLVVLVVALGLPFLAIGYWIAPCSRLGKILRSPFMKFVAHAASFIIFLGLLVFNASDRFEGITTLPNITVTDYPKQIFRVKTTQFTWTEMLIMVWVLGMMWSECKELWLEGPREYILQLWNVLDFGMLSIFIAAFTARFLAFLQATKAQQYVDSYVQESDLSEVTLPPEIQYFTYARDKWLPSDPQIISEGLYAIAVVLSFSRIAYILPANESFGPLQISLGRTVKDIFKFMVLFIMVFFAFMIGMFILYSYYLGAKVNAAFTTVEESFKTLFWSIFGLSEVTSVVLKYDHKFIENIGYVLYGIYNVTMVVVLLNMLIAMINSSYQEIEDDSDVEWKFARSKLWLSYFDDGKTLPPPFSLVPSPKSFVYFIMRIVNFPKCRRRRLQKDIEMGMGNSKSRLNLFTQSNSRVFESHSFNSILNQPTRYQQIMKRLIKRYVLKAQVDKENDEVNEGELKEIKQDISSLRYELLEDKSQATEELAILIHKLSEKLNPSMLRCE
# Method: Inhibition of DAG-mediated TRPC activation. To determine if ELP-004 (N-MeDCPA) inhibits DAG-induced TRPC activation, HEK293 cells expressing TRPC3, TRPC6 or TRPC7 were loaded with Fura2 and incubated with ELP-004 (0 to 1 mM) for 10 minutes prior to challenging with 1-Oleoyl-2-acetyl-sn-glycerol (OAG), a membrane permeable form of diacylglycerol.
# Cell Culture—HEK293 cells were grown in DMEM with 4.5 g/L glucose supplemented with 10% FBS and 1% Gentamycin (Full DMEM media; Thermo-Fisher Scientific, Waltham, MA) at 37° C. and 5% CO2. […]
# TRPC activity assay—Cells grown on glass coverslips were incubated in a cation-safe buffer (107 mM NaCl, 7.2 mM KCl, 1.2 mM MgCl2, 11.5 mM Glucose, 20 mM HEPES-NaOH, 1 mM CaCl2), pH 7.2) and loaded with Fura2-acetoxymethylester (Fura2-AM; 2 μM) for 30 min at 24° C. as previously described^10,11. […] Ca^2+/Sr^2+ measurements were taken using a Leica DMI 6000B fluorescence microscope controlled by Slidebook software (Intelligent Imaging Innovations, Denver, CO). Fluorescence emission at 505 nm was monitored in response to excitation at alternating 340 nm and 380 nm wavelengths at a frequency of 0.67 Hz; intracellular Ca^2+ measurements are shown at 340/380 nm ratios obtained from groups of 35-45 single cells.
# TRPC4 = target: T2, TRPC4 (Homo sapiens, UniProt Q9UBN4); test: FIG. 4 TRPC4 overexpressing cells, fura, OAG in the presence of Ca2+; format: cell-based; details: TRPC4 O/E cells, Ca2+ present, N=4
# T2 construct: expressed in transfected cells; host or cells: HEK293 (transient transfection)
# T2 sequence (Q9UBN4 1-977): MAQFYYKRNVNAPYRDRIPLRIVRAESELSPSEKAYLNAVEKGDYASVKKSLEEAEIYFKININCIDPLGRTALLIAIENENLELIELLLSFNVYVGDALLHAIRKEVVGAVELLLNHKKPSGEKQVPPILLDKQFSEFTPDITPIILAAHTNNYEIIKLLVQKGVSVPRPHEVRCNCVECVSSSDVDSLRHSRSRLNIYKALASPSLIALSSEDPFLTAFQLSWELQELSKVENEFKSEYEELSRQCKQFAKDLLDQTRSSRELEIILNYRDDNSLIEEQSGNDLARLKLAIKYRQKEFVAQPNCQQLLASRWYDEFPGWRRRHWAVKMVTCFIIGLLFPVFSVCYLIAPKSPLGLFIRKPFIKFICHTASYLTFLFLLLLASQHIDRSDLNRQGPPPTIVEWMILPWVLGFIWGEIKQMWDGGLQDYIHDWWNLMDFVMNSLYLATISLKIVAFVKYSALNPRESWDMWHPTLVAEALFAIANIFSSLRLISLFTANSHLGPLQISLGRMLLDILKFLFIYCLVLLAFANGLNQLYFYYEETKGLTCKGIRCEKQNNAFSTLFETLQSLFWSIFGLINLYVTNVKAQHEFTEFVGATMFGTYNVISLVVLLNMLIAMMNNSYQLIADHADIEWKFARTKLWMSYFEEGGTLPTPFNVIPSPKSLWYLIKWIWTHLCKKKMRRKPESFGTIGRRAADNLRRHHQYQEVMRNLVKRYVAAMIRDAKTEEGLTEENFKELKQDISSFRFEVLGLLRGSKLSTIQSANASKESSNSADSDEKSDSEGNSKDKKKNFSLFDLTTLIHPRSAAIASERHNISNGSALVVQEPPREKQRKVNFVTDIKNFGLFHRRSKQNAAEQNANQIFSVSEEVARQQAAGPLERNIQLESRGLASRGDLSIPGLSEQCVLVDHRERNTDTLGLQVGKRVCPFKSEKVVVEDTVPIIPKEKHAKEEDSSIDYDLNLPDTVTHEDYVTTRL
# Excerpt: The assay was done in the presence of Ca^2+. OAG (1-Oleoyl-2-acetyl-sn-glycerol) is a cell permeable DAG analog and directly activates these TRPC channels (i.e. TRPC4 and TRPC5).
structure (smiles),measurement,setting,value
"CCC(=O)N(C)c1ccc(Cl)c(Cl)c1 [ELP-004, N-(3,4-dichlorophenyl)-N-methylpropanamide]",IC50,TRPC3,1000 to 2000 nM
same,IC50,TRPC4,172 nM
